Consider 16 molecules from US11053218B2, “3-(1-oxoisoindolin-2-yl)piperidine-2,6-dione derivatives and uses thereof” (Novartis AG, priority 2017, dated 2021).

One test concerns the target IKZF2 (Homo sapiens, UniProt Q96SW2+Q9UKS7). The experiment in a line: Prolabel quantification of IKZF2 protein levels in 293GT cells. Type of test: cell-based. The following applies: 293GT cells; for inhibition at 10 µM: 24 h, read-out: IKZF2 % protein reduction at 10 μM, 24 h; for DC50: Prolabel assay, read-out: IKZF2 EC50.
Another test deals with IKZF1 (Homo sapiens, UniProt Q13422+Q96SW2). The experiment in a line: Prolabel quantification of IKZF1 protein levels in 293GT cells. The following applies: Prolabel assay, read-out: IKZF1 EC50. Format: cell-based.
Sequence of IKZF1 (Q13422 whole entry): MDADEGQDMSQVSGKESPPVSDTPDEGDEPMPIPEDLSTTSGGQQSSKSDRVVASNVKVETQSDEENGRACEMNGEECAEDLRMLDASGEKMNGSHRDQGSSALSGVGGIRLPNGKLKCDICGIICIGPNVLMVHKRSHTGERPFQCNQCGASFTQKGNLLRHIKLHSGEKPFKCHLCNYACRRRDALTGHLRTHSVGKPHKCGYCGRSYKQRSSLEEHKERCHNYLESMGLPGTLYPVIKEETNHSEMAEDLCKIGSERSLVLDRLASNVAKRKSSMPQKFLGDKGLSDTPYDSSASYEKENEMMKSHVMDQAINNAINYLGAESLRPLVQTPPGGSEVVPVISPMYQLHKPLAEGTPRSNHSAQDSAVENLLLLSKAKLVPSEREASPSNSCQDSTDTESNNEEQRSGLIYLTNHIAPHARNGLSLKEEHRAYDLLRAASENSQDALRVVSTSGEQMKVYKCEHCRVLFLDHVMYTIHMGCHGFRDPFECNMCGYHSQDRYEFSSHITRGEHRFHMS
Sequence of IKZF1 (Q96SW2 whole entry): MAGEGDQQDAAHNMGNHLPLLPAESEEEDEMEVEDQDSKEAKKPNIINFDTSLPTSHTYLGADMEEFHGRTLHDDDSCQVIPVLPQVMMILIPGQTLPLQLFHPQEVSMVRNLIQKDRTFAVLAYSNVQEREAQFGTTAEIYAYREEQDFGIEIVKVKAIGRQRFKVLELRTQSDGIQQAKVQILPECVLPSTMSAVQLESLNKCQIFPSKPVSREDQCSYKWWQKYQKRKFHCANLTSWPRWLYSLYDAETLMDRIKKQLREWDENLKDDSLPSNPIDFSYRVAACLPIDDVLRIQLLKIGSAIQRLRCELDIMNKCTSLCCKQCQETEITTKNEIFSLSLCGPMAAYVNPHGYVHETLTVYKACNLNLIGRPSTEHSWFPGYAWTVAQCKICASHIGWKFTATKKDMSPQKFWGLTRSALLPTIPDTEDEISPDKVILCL
Sequence of IKZF1 (Q16531 whole entry partner): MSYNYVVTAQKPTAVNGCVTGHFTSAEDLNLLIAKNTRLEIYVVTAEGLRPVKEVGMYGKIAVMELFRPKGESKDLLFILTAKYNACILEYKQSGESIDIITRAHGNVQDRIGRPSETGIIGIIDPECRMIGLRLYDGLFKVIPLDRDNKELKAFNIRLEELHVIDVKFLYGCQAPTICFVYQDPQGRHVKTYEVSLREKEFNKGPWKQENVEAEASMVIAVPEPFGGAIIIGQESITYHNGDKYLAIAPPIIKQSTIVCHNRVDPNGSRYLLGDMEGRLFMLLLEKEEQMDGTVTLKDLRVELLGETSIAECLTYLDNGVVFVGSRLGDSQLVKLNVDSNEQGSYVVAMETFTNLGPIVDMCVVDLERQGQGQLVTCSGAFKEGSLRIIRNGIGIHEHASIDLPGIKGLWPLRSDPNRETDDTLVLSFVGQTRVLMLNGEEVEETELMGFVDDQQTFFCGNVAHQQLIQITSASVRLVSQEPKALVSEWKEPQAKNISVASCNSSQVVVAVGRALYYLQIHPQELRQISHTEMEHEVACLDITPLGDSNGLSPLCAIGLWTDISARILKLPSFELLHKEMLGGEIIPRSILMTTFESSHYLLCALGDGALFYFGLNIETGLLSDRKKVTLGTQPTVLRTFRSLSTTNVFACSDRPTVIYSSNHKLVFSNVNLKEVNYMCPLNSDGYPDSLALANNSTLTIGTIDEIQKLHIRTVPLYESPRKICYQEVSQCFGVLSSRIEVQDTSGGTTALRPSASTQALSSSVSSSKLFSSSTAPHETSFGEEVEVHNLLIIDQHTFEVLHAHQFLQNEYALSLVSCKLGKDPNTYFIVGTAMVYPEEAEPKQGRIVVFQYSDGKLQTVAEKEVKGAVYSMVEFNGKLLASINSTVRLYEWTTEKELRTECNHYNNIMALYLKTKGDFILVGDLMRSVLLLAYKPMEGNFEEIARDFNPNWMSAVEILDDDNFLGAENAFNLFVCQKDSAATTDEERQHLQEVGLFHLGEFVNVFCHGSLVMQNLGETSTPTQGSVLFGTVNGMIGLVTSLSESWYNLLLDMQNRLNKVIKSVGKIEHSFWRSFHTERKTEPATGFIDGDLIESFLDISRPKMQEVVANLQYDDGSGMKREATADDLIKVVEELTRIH

Sequence of IKZF2 (Q9UKS7 whole entry): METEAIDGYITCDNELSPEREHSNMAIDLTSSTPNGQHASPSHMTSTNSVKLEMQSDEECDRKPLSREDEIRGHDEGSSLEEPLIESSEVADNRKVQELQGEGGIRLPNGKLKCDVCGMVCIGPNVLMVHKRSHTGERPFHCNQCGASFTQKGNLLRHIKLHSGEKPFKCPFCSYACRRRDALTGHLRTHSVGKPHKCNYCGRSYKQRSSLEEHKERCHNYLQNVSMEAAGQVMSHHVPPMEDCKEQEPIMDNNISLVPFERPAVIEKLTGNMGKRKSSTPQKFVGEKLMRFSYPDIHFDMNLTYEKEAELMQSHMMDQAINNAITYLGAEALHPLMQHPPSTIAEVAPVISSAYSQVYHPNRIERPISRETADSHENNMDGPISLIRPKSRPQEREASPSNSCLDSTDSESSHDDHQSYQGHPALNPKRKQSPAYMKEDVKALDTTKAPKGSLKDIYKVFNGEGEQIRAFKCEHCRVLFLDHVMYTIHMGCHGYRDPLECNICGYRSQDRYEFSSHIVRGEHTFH
Sequence of IKZF2 (Q96SW2 whole entry): as the sequence (Q96SW2 whole entry) above
Sequence of IKZF2 (Q16531 whole entry partner): as the sequence (Q16531 whole entry partner) above

Take `O=C1CCC(N2Cc3cc(C4CCN(C(CO)c5ccccc5)CC4)ccc3C2=O)C(=O)N1` (single isomer, unassigned) [Compound I-249]: at IKZF2, the inhibition at 10 µM was 40% and the DC50 was determined as 850 nM. Also, the DC50 at IKZF1 is more than 30000 nM.

Regarding `O=C1CCC(N2Cc3cc(C4CCN(Cc5ccc(S(=O)(=O)C(F)F)cc5)CC4)ccc3C2=O)C(=O)N1` (stereo not drawn) [Compound I-252, 3-(5-(1-(4-((difluoromethyl)sulfonyl)benzyl)piperidin-4-yl)-1-oxoisoindolin-2-yl)piperidine-2,6-dione], the inhibition at 10 µM at IKZF2 came out at 75%. For the same molecule, the DC50 at IKZF2 was 30 nM; on IKZF1, more than 30000 nM.

`O=C1CCC(N2Cc3cc(C4CCN(Cc5ccc(C(F)(F)F)cn5)CC4)ccc3C2=O)C(=O)N1` (stereo not drawn) [Compound I-78, 3-(1-oxo-5-(1-((5-(trifluoromethyl)pyridin-2-yl)methyl)piperidin-4-yl)isoindolin-2-yl)piperidine-2,6-dione]: on IKZF2, the inhibition at 10 µM was determined as 40% and the DC50 is 210 nM. Moreover, the DC50 on IKZF1 was more than 30000 nM.

Turning to `O=C1CCC(N2Cc3cc(C4CCN(Cc5ccccc5OC(F)F)CC4)ccc3C2=O)C(=O)N1` (stereo not drawn) [Compound I-80, 3-(5-(1-(2-(difluoromethoxy)benzyl)piperidin-4-yl)-1-oxoisoindolin-2-yl)piperidine-2,6-dione], at IKZF2, the inhibition at 10 µM was 60%. Further, the DC50 at IKZF2 is 12 nM; at IKZF1 it was more than 30000 nM.

Regarding `CCOc1ccc(CN2CCC(c3ccc4c(c3)CN(C3CCC(=O)NC3=O)C4=O)CC2)cc1` (stereo not drawn) [Compound I-287, 3-(5-(1-(4-ethoxybenzyl)piperidin-4-yl)-1-oxoisoindolin-2-yl)piperidine-2,6-dione], the inhibition at 10 µM on IKZF2 came out at 70%. The DC50 was 18 nM on IKZF2 and more than 30000 nM on IKZF1.

With `O=C1CCC(N2Cc3cc(C4CCN(Cc5ccccc5C5CC5)CC4)ccc3C2=O)C(=O)N1` (stereo not drawn) [Compound I-104, 3-(5-(1-(2-cyclopropylbenzyl)piperidin-4-yl)-1-oxoisoindolin-2-yl)piperidine-2,6-dione], at IKZF2, the inhibition at 10 µM came out at 60% and the DC50 was 5 nM. For the same molecule, the DC50 at IKZF1 is more than 30000 nM.

Regarding `Cc1ccc(CN2CCC(c3ccc4c(c3)CN(C3CCC(=O)NC3=O)C4=O)CC2)c(C)c1` (stereo not drawn) [Compound I-42, 3-(5-(1-(2,4-dimethylbenzyl)piperidin-4-yl)-1-oxoisoindolin-2-yl)piperidine-2,6-dione], at IKZF2, the inhibition at 10 µM stood at 60%. The DC50 at IKZF2 was 9 nM; on IKZF1 it was more than 30000 nM.

`O=C1CCC(N2Cc3cc(C4CCN(Cc5cc(C6CC6)[nH]n5)CC4)ccc3C2=O)C(=O)N1` (stereo not drawn) [Compound I-146, 3-(5-(1-((5-cyclopropyl-1H-pyrazol-3-yl)methyl)piperidin-4-yl)-1-oxoisoindolin-2-yl)piperidine-2,6-dione]: on IKZF2, the inhibition at 10 µM is 60% and the DC50 amounted to 170 nM. Further, the DC50 on IKZF1 is more than 30000 nM.

For the molecule `O=C1CCC(N2Cc3cc(C4CCN(Cc5ccc(C(F)(F)F)cc5)CC4)ccc3C2=O)C(=O)N1` (stereo not drawn) [Compound I-76, 3-(1-oxo-5-(1-(4-(trifluoromethyl)benzyl)piperidin-4-yl)isoindolin-2-yl)piperidine-2,6-dione], on IKZF2, the inhibition at 10 µM is 75% and the DC50 was determined as 17 nM. Further, at IKZF1, the DC50 is more than 30000 nM.

Consider `O=C1CCC(N2Cc3cc(C4CCN([C@@H](CO)c5ccccc5)CC4)ccc3C2=O)C(=O)N1` (single isomer, unassigned) [Compound I-202], for which, at IKZF2, the inhibition at 10 µM was found to be 40% and the DC50 was determined as 590 nM. Besides, the DC50 at IKZF1 was more than 30000 nM.

On to `Cc1cc(CN2CCC(c3ccc4c(c3)CN(C3CCC(=O)NC3=O)C4=O)CC2)on1` (stereo not drawn) [Compound I-245, 3-(5-(1-((3-methylisoxazol-5-yl)methyl)piperidin-4-yl)-1-oxoisoindolin-2-yl)piperidine-2,6-dione], for which, at IKZF2, the inhibition at 10 µM is 40% and the DC50 came to 37 nM. In addition, the DC50 on IKZF1 is more than 50000 nM.

For the molecule `O=C1CCC(N2Cc3cc(C4CCN(Cc5nc6ccccc6s5)CC4)ccc3C2=O)C(=O)N1` (stereo not drawn) [Compound I-200, 3-(5-(1-(benzo[d]thiazol-2-ylmethyl)piperidin-4-yl)-1-oxoisoindolin-2-yl)piperidine-2,6-dione], at IKZF2, the inhibition at 10 µM amounted to 35% and the DC50 came to 67 nM. The DC50 on IKZF1 is more than 30000 nM.

For `O=C1CCC(N2Cc3cc(C4CCN(Cc5cnn(-c6ccccc6)c5)CC4)ccc3C2=O)C(=O)N1` (stereo not drawn) [Compound I-288, 3-(1-oxo-5-(1-((1-phenyl-1H-pyrazol-4-yl)methyl)piperidin-4-yl)isoindolin-2-yl)piperidine-2,6-dione], on IKZF2, the inhibition at 10 µM came to 80%. Besides, the DC50 on IKZF2 is 12 nM; at IKZF1, more than 30000 nM.

As to `COc1ccccc1CN1CCC(c2ccc3c(c2)CN(C2CCC(=O)NC2=O)C3=O)CC1` (stereo not drawn) [Compound I-67, 3-(5-(1-(2-methoxybenzyl)piperidin-4-yl)-1-oxoisoindolin-2-yl)piperidine-2,6-dione], the inhibition at 10 µM at IKZF2 stood at 70%. Also, the figures for the DC50 on IKZF2 and on IKZF1 were 58 nM and more than 30000 nM, respectively.

`CCn1ccc(CN2CCC(c3ccc4c(c3)CN(C3CCC(=O)NC3=O)C4=O)CC2)n1` (stereo not drawn) [Compound I-121, 3-(5-(1-((1-ethyl-1H-pyrazol-3-yl)methyl)piperidin-4-yl)-1-oxoisoindolin-2-yl)piperidine-2,6-dione]: at IKZF2, the inhibition at 10 µM was 60% and the DC50 worked out at 62 nM. Further, on IKZF1, the DC50 is more than 30000 nM.

With `O=C1CCC(N2Cc3cc(C4CCN(Cc5cccc(C(F)F)c5)CC4)ccc3C2=O)C(=O)N1` (stereo not drawn) [Compound I-73, 3-(5-(1-(3-(difluoromethyl)benzyl)piperidin-4-yl)-1-oxoisoindolin-2-yl)piperidine-2,6-dione], on IKZF2, the inhibition at 10 µM was determined as 70% and the DC50 came to 11 nM. Also, on IKZF1, the DC50 was more than 30000 nM.
